Assay results reported in US20260207624A1, “COADMINISTRATION OF ESTROGEN WITH ESTROGEN RECEPTOR MODULATOR OR DEGRADER OR ER TARGETED PROTAC FOR THE TREATMENT OF ESTROGEN RESPONSIVE CANCERS” (Duke University, priority 2022, published 2026).
Entries after “also recorded” stand apart in the source; their conditions may differ.

Experiments:
uterus = experiment: Uterine wet weight at necropsy as measure of estrogen stimulation; type: in vivo, mouse
Description: (§1) For all experiments, mice were ovariectomized under anesthesia at 7 weeks of age and were provided placebo or estrogen (2.72 mcg/mL) treatment in drinking water throughout the remainder of the experiment. 7 to 10 days after surgery 0.5×10^6 BPD6melanoma cells or E0771 (0.2×10^6) or A7C 11 (0.4×10^5) mammary cancer cells per mouse were injected subcutaneously (BPD6) or orthotopically (A7C11 or E0771) into the axial mammary gland. Tumor growth was monitored by caliper measurement at least 3× weekly and was calculated as L×W2×0.5. For those mice receiving treatment with SERDs, mice were randomized to treatment 2 days after tumor implantation. 3574 (camizestrant) and 3964 were administered PO QD (by mouth every day) formulated in 5% DMSO/20% hydroxypropyl-b-cyclodextrin. Fulvestrant was administered SC Q5D in 10% DMSO/95% corn oil.
(§2) At the conclusion of tumor measurement (approximately 2 weeks or when tumor reached 1.5-2 cm^3 volume), mice were euthanized by CO2 exposure followed by decapitation. Uteri were removed at necropsy and weighed as a measure of estrogen stimulation.
(§3) To further explore the role of brain-expressed ER in tumor growth in the periphery, 2 SERDs were used with unique pharmacokinetics. […] ER-negative BPD6 melanoma cells were implanted into ovariectomized mice receiving either placebo or estradiol (E2) treatment in drinking water. After 48 hours, mice were randomized to receive vehicle (veh) or selective estrogen receptor degrader 3574 (10 mg/kg po qd; by mouth every day). Average tumor volume +/−SEM at each day of measurement was determined. Significance (p<0.05) was determined by 2-way ANOVA followed by Tukey's multiple comparison test. […] Treatment with anti-estrogens reversed this estradiol stimulation of tumor growth. E2 treated groups are included FIGS. 3A-3B.

BPD6 melanoma cells = experiment: BPD6 melanoma tumor growth in ovariectomized mice receiving placebo or E2; type: in vivo, mouse; details: BPD6 tumors
Description: (§4) Prior to implantation into animals, BPD6, E0771, and A7C11 cells were cultured in DMEM media supplemented with 8% fetal bovine serum, non-essential amino acids and sodium pyruvate. Cells were trypsinized and injected in phosphate buffered saline.
as §1, §2, §3
To further explore the relationship between brain exposure to SERDs and tumor response, a second melanoma experiment was conducted in which BPD6 tumors were implanted into ovariectomized mice receiving vehicle or estradiol treatment. These groups were further subdivided to receive vehicle or treatment with 25, 50, or 100 mg/kg fulvestrant.

A7C11 mammary tumors = experiment: A7C11 mammary tumor growth in C57BL6 mice receiving placebo or estradiol; type: in vivo, mouse; details: for effect on tumor growth, fulvestrant alone: mice lacking estrogen exposure
Description: FIGS. 11a-11b. […] 2 days later mice were subdivided to receive treatment with vehicle or fulvestrant (25, 50 or 100 mg/kg sc q5d). Average tumor volume throughout treatment (FIG. 11A) and uterine weight (FIG. 11B) at necropsy are presented. Placebo and E2+Veh groups in (FIG. 11A) are common between graphs to facilitate comparison. * p<0.05, 2-way (FIG. 11A) or 1-way (FIG. 11B) ANOVA followed by Tukey multiple comparison test. […]
as §4
as §1, with “[…]. […]” for “oil.”

E0771 mammary tumors = experiment: E0771 mammary tumor growth in ovariectomized mice receiving placebo or E2; type: in vivo, mouse
Description: as §4, §1, §2
Analogous to the experiment in Example 4, E0771 mammary tumors were implanted in ovariectomized mice receiving E2 or placebo treatment.

BPD6 melanoma tumors = experiment: BPD6 tumor growth in mice with ER ablated in macrophages (LysMCre+) or littermate controls; type: in vivo, mouse
Description: FIG. 5. TUMOR GROWTH IS REPRESSED WITH ESTROGEN AND A BRAIN-EXCLUDED SERD. FIG. 5 is a graph of tumor growth for BPD6 tumors with or without ER for the various indicated drug treatments. […] An analogous experiment to that presented in FIGS. 2A-2B and FIGS. 3A-3B was conducted in mice in which ER expression in macrophages was ablated using a promoter (LysM) to drive expression of the Cre enzyme to delete this receptor specifically in this cell type in mice having a floxed allele of ER. BPD6 melanoma tumors were implanted subcutaneously into Cre+ (ER ablated in macrophage) or littermate (LM, phenotypically wild type) mice that had been ovariectomized and then assigned to placebo or E2 treatment.
as §1
It was previously determined that for some cancer subtypes, including melanoma, one mechanism by which estrogens modulate tumor growth is by promoting a pro-tumor anti-inflammatory M2-like phenotype in the tumor infiltrating macrophages. Using a genetic model employing Cre-Lox technology to specifically delete estrogen receptor in myeloid cells (including macrophages), it was previously determined that loss of estrogen receptor expression in this immune cell population results in the loss of estrogen modulation of tumor growth in these tumors. […] BOD6 tumors were implanted in ovariectomized ERflox/flox/LysMCre+ or ERflox/flox mice that received placebo or estradiol treatment. Mice were further randomized to receive vehicle or SERD 3574 (10 mg/kg po qd; by mouth every day). Average tumor volume +/−SEM was determined. Significance (p<0.05) was determined by 2-way ANOVA followed by Tukey's multiple comparison test.

[1] = Brain penetration of the SERDs (pharmacokinetics); details: stated as a property of the SERD, no test described
[2] = Cre- littermate control (LM) mice of the brain-ERKO experiment, E2 in drinking water

With `C[C@]12CC[C@@H]3c4ccc(O)cc4CC[C@H]3[C@@H]1CC[C@@H]2O` [E2, 17β-estradiol] the “increase in uterine wet weight” value (uterus; estrogen treatment vs placebo, BPD6 tumor bearing ovariectomized mice (FIG. 2A)) was roughly 10 fold, the “effect of E2 on tumor growth vs placebo treated control” value (“effect … vs placebo treated control” below) (BPD6 melanoma cells; [2]) was “accelerated the growth of the tumors” and the “increase in tumor growth as compared to placebo/vehicle treatment” value (BPD6 melanoma cells; ovariectomized wild-type mice, agent alone (FIG. 2B)) was 3 fold. For the same compound, the “effect … vs placebo treated control” value (A7C11 mammary tumors; [2]) was “accelerated the growth of the tumors”, the “effect on tumor growth” value (A7C11 mammary tumors; estradiol (2.72 mcg/mL drinking water) and vehicle co-administered) was “increase in A7C11 tumor growth” and the “effect … vs placebo treated control” value (E0771 mammary tumors; [2]) was “accelerated the growth of the tumors”. The “tumor volume relative to placebo control” value (E0771 mammary tumors; E2 treatment alone (FIG. 4A)) was “approximately 2 fold”, the “effect of E2 on tumor growth” value (BPD6 melanoma tumors; Cre+ mice (ER ablated in macrophage)) was “without significant effect on tumor growth” and the “tumor volume as compared to the placebo control” value (BPD6 melanoma tumors; Cre- LM control mice, E2 treatment) was 2 fold.
With `C[C@@H]1Cc2c(ccc3[nH]ncc23)[C@@H](c2ccc(NC3CN(CCCF)C3)cn2)N1CC(F)(F)F` [compound 3574, camizestrant] the brain penetration [1] was “brain excluded”, the “effect on E2 stimulation of the uterus (post-mortem uterine wet weight)” value (uterus; E0771 tumor bearing mice, all doses of the SERD) was “reversed E2 stimulation of the uterus” and the “effect on E2 stimulation of uterine wet weight” value (uterus; SERD with E2, BPD6 tumor bearing ovariectomized mice) was “reversed E2 stimulation of uterine wet weight”. The “effect on uterine weight, SERD alone (ER agonist activity)” value (uterus; placebo together with SERD, BPD6 tumor bearing ovariectomized mice) was “did not affect uterine weight”, the “effect on E2 induced tumor growth” value (BPD6 melanoma cells; 3574 10 mg/kg po qd together with E2, 10 mg/kg) was “suppressed tumor growth below that observed in the placebo/vehicle treated control; also recorded: reversed E2 induced tumor growth, but in fact significantly repressed tumor growth as compared to placebo treatment alone” and the “effect on tumor growth, SERD alone” value (BPD6 melanoma cells; placebo treated (no E2) mice, 3574 10 mg/kg po qd) was “without effect on tumor growth”. The “effect on tumor growth, SERD alone” value (A7C11 mammary tumors; animals lacking estrogen exposure (FIGS. 12B-12D)) was “did not impact tumor growth”, the “effect on tumor growth, SERD together with estrogen” value (A7C11 mammary tumors; estradiol treated mice (FIGS. 12B-12D)) was “further repressed tumor growth” and the “effect on E2 stimulation of tumor growth” value (E0771 mammary tumors; E2-treated mice, 3574 (10 mg/kg)) was “reversed E2 stimulation of tumor growth”. The “effect on tumor growth vs Cre+ mice receiving E2 alone” value (BPD6 melanoma tumors; Cre+ mice, 3574 10 mg/kg po qd and E2 together) was “significantly inhibited tumor growth” and the “effect on growth of tumors, SERD alone” value (BPD6 melanoma tumors; placebo treated Cre+ mice, 3574 10 mg/kg po qd) was “did not affect the growth of tumors”.
With `C[C@]12CC[C@@H]3c4ccc(O)cc4C[C@@H](CCCCCCCCC[S+]([O-])CCCC(F)(F)C(F)(F)F)[C@H]3[C@@H]1CC[C@@H]2O` (stereo partly drawn) [fulvestrant] the “effect on estrogen-dependent increases in uterine weight” value (uterus; A7C11 tumor bearing mice, fulvestrant 25, 50, or 100 mg/kg sc q5d) was “similarly repressed estrogen-dependent increases in uterine weight”, the “effect on E2 stimulation of tumor growth” value (BPD6 melanoma cells; E2-treated mice, fulvestrant 25, 50, or 100 mg/kg) was “reversed E2 stimulation of tumor growth” and the “effect on tumor growth, fulvestrant alone” value (shortened to “effect … fulvestrant alone”) (BPD6 melanoma cells; placebo treated mice, fulvestrant 100 mg/kg) was “growth similar to that of the estrogen/vehicle control; also recorded: induced tumor growth itself”. For the same compound, the “effect on estrogen induction of tumor growth” value (A7C11 mammary tumors; estradiol treated mice, 25, 50, or 100 mg/kg fulvestrant) was “similarly inhibited estrogen induction of A7C11 tumor growth”, the “effect … fulvestrant alone” value (A7C11 mammary tumors; 25 mg/kg fulvestrant sc q5d) was “dose not affect A7C11 tumor growth” and the “effect … fulvestrant alone” value (A7C11 mammary tumors; 50 or 100 mg/kg fulvestrant sc q5d) was “tumor growth comparable to that observed for the estrogen control group”.
In the case of `Oc1ccc2c(c1)CC[C@H](c1ccccc1)[C@@H]2c1ccc(OCCN2CCCC2)cc1` [lasofoxifene], the “effect on tumor growth as compared to the placebo/vehicle control group” value (A7C11 mammary tumors; 3 mg/kg lasofoxifene po qd co-administered with estradiol) is reported as “repression of tumor growth”.
